Measured values reported in ChEMBL document CHEMBL4028802, “DILIrank: the largest reference drug list ranked by the risk for developing drug-induced liver injury in humans” (Drug Discov Today, 2016).

Assays:
[1] = species on record: Homo sapiens; experiment: Liver toxicity in human assessed as induction of drug-induced liver injury by measuring severity class index
[2] = species on record: Homo sapiens; experiment: Liver toxicity in human assessed as induction of drug-induced liver injury by measuring verified drug-induced liver injury concern status
Wherever DILI severity class is given: key of the grades not given here.

| Compound | DILI_severity_class [1] | DILI_Concern [2] |
| --- | --- | --- |
| CC(C)c1nc(N(C)S(C)(=O)=O)nc(-c2ccc(F)cc2)c1/C=C/[C@@H](O)C[C@@H](O)CC(=O)O [ROSUVASTATIN] | 3 | Less-Dili-Concern |
| NNc1nncc2ccccc12 [HYDRALAZINE] | 3 | Less-Dili-Concern |
| O=[N+]([O-])O[C@@H]1CO[C@H]2[C@@H]1OC[C@H]2O | 3 | Ambiguous-Dili-Concern |
| N=C(N)NC(=O)Cc1c(Cl)cccc1Cl [GUANFACINE] | 3 | Ambiguous-Dili-Concern |
| Cc1cc2c(cc1CC(=O)c1sccc1S(=O)(=O)Nc1onc(C)c1Cl)OCO2 [SITAXENTAN] | 8 | Most-Dili-Concern |
| COc1ccccc1OCC(O)CO (configuration not stated) [GUAIFENESIN] | 0 | No-Dili-Concern |
| CC(C)NCC(O)COc1ccc(CC(N)=O)cc1 (configuration not stated) [ATENOLOL] | 4 | Less-Dili-Concern |
| CC1(C)O[C@@H]2[C@@H](CO[C@@]3(COS(N)(=O)=O)OC(C)(C)O[C@@H]23)O1 [TOPIRAMATE] | 3 | Less-Dili-Concern |
| CN(C)CCOC(c1ccccc1)c1ccccc1.Cn1c(=O)c2[nH]c(Cl)nc2n(C)c1=O [DIMENHYDRINATE] | 0 | No-Dili-Concern |
| OC(CNCC(O)C1CCc2cc(F)ccc2O1)C1CCc2cc(F)ccc2O1 (configuration not stated) [NEBIVOLOL] | 3 | Ambiguous-Dili-Concern |
| CUPRIC CHLORIDE | 0 | No-Dili-Concern |
| COc1cc(C(=O)NCc2ccc(OCCN(C)C)cc2)cc(OC)c1OC [TRIMETHOBENZAMIDE] | 5 | Ambiguous-Dili-Concern |
| Cc1nnc2n1-c1ccc(Cl)cc1C(c1ccccc1Cl)=NC2 [TRIAZOLAM] | 4 | Ambiguous-Dili-Concern |
| CCN(CC)CCNC(=O)c1ccc(N)cc1 [PROCAINAMIDE] | 4 | Less-Dili-Concern |
| Nc1ccc(S(=O)(=O)Nc2ncccn2)cc1 [SULFADIAZINE] | 3 | Less-Dili-Concern |
| CC(=O)O.CC(C)[C@@H]1NC(=O)[C@H](CCCCN)NC(=O)[C@@H](Cc2c[nH]c3ccccc23)NC(=O)[C@H](Cc2ccc(O)cc2)NC(=O)[C@@H](NC(=O)[C@H](N)Cc2ccc3ccccc3c2)CSSC[C@@H](C(=O)N[C@H](C(N)=O)[C@@H](C)O)NC1=O [LANREOTIDE ACETATE] | 2 | Ambiguous-Dili-Concern |
| C[N+](C)(C)CCOC(=O)CCC(=O)OCC[N+](C)(C)C [SUXAMETHONIUM] | 0 | No-Dili-Concern |
| C=CC[N+]1([C@H]2C[C@H]3[C@@H]4CC[C@H]5C[C@H](O)C(N6CCOCC6)C[C@]5(C)[C@H]4CC[C@]3(C)[C@H]2OC(C)=O)CCCC1 (some centres not stated) | 0 | No-Dili-Concern |
| O=C(O)Cc1ccccc1Nc1c(Cl)cccc1Cl [DICLOFENAC] | 8 | Most-Dili-Concern |
| CN1c2c(oc(=O)n(-c3ccccn3)c2=O)-c2ccccc2S1(=O)=O [DROXICAM] | 8 | Most-Dili-Concern |
| Cn1c(=O)c2c(ncn2CC(O)CO)n(C)c1=O (configuration not stated) [DYPHYLLINE] | 0 | No-Dili-Concern |

| Compound | DILI_severity_class [1] | DILI_Concern [2] |
| --- | --- | --- |
| CCc1ccc(CCOc2ccc(CC3SC(=O)NC3=O)cc2)nc1 (configuration not stated) [PIOGLITAZONE] | 3 | Less-Dili-Concern |
| NCCC(O)(P(=O)(O)O)P(=O)(O)O [PAMIDRONIC ACID] | 3 | Ambiguous-Dili-Concern |
| Nc1nc(F)nc2c1ncn2[C@@H]1O[C@H](COP(=O)(O)O)[C@@H](O)[C@@H]1O [FLUDARABINE PHOSPHATE] | 0 | No-Dili-Concern |
| NC(N)=Nc1nc(CSCCC(N)=NS(N)(=O)=O)cs1 [FAMOTIDINE] | 3 | Less-Dili-Concern |
| C[C@]12CC[C@@H]3c4ccc(O)cc4CC[C@H]3[C@@H]1CCC2=O [ESTRONE] | 2 | Ambiguous-Dili-Concern |
| CCN(CC)C(=O)C1(c2ccccc2)CC1CN (configuration not stated) | 7 | Most-Dili-Concern |
| CC1=C(C(=O)O)N2C(=O)[C@@H](NC(=O)[C@H](N)c3ccc(O)cc3)[C@H]2SC1 [CEFADROXIL] | 7 | Less-Dili-Concern |
| COc1ccc2c(C(=S)N(C)CC(=O)O)cccc2c1C(F)(F)F [TOLRESTAT] | 8 | Most-Dili-Concern |
| CN(C)c1cc(NC(=O)CNC(C)(C)C)c(O)c2c1C[C@H]1C[C@H]3[C@H](N(C)C)C(O)=C(C(N)=O)C(=O)[C@@]3(O)C(O)=C1C2=O [TIGECYCLINE] | 8 | Ambiguous-Dili-Concern |
| C=C1CC[C@@]2(O)[C@H]3Cc4ccc(O)c5c4[C@@]2(CCN3CC2CC2)[C@H]1O5.Cl [NALMEFENE HYDROCHLORIDE] | 3 | Ambiguous-Dili-Concern |
| COc1ccc(CC2c3cc(OC)c(OC)cc3CC[N+]2(C)CCC(=O)OCCCCCOC(=O)CC[N+]2(C)CCc3cc(OC)c(OC)cc3C2Cc2ccc(OC)c(OC)c2)cc1OC (configuration not stated) | 0 | No-Dili-Concern |
| COC(=O)C1=C(C)NC(C)=C(C(=O)OC(C)C)C1c1cccc2nonc12 (configuration not stated) [ISRADIPINE] | 3 | Less-Dili-Concern |
| CNC(=O)Oc1ccc2c(c1)[C@]1(C)CCN(C)[C@@H]1N2C [PHYSOSTIGMINE] | 0 | No-Dili-Concern |
| CCC[C@@H]1C[C@@H](C(=O)N[C@@H]([C@H]2O[C@H](SC)[C@H](OP(=O)(O)O)[C@@H](O)[C@H]2O)[C@H](C)Cl)N(C)C1 [CLINDAMYCIN PHOSPHATE] | 3 | Ambiguous-Dili-Concern |
| CC(C)N(CCC(C(N)=O)(c1ccccc1)c1ccccn1)C(C)C (configuration not stated) [DISOPYRAMIDE] | 2 | Less-Dili-Concern |
| CN1Cc2c(N)cccc2C(c2ccccc2)C1 (configuration not stated) [NOMIFENSINE] | 8 | Most-Dili-Concern |
| CCCC(C)(COC(N)=O)COC(N)=O [MEPROBAMATE] | 0 | No-Dili-Concern |
| CC[N+](CC)(CCNC(=O)C(=O)NCC[N+](CC)(CC)Cc1ccccc1Cl)Cc1ccccc1Cl [AMBENONIUM] | 0 | No-Dili-Concern |
| Nc1cccc2c1CN(C1CCC(=O)NC1=O)C2=O (configuration not stated) [LENALIDOMIDE] | 3 | Less-Dili-Concern |
| Sc1ncnc2nc[nH]c12 [MERCAPTOPURINE ANHYDROUS] | 8 | Most-Dili-Concern |
| O=C(O)C1N=C(c2ccccc2)c2cc(Cl)ccc2NC1=O (configuration not stated) [CLORAZEPIC ACID] | 3 | Ambiguous-Dili-Concern |

| Compound | DILI_severity_class [1] | DILI_Concern [2] |
| --- | --- | --- |
| O=C(O)c1cc(/N=N/c2ccc(S(=O)(=O)Nc3ccccn3)cc2)ccc1O [SULFASALAZINE] | 5 | Most-Dili-Concern |
| CN1[C@@H]2CC[C@H]1C[C@@H](OC(c1ccccc1)c1ccccc1)C2 [BENZTROPINE] | 0 | No-Dili-Concern |
| CC(=O)[C@@]1(O)CC[C@H]2[C@@H]3C[C@H](C)C4=CC(=O)CC[C@]4(C)[C@H]3CC[C@@]21C | 2 | Ambiguous-Dili-Concern |
| Cc1cc(Br)c(O)c2ncccc12 [TILBROQUINOL] | 8 | Most-Dili-Concern |
| BLEOMYCIN | 3 | Ambiguous-Dili-Concern |
| CC(C)C[C@H]1C(=O)N2CCC[C@H]2[C@]2(O)O[C@](NC(=O)[C@@H]3C=C4c5cccc6[nH]c(Br)c(c56)C[C@H]4N(C)C3)(C(C)C)C(=O)N12 [BROMOCRIPTINE] | 3 | Less-Dili-Concern |
| O=c1[nH]cc(F)c(=O)[nH]1 [FLUOROURACIL] | 0 | Less-Dili-Concern |
| CCCc1nn(C)c2c(=O)[nH]c(-c3cc(S(=O)(=O)N4CCN(C)CC4)ccc3OCC)nc12 | 3 | Less-Dili-Concern |
| COC(=O)[C@@H]1CC2=CC(=O)CC[C@]2(C)[C@@]23O[C@@H]2C[C@@]2(C)[C@@H](CC[C@@]24CCC(=O)O4)[C@H]13 [EPLERENONE] | 4 | Ambiguous-Dili-Concern |
| CC(C)NNC(=O)c1ccncc1 [IPRONIAZID] | 8 | Most-Dili-Concern |
| O=C(N[C@H](CO)[C@H](O)c1ccc([N+](=O)[O-])cc1)C(Cl)Cl [CHLORAMPHENICOL] | 0 | No-Dili-Concern |
| COc1cc(C)c(/C=C/C(C)=C/C=C/C(C)=C/C(=O)O)c(C)c1C [ACITRETIN] | 5 | Most-Dili-Concern |
| CC(N)C12CC3CC(CC(C3)C1)C2 (configuration not stated) [RIMANTADINE] | 0 | No-Dili-Concern |
| Nc1ncnc2c1ncn2[C@@H]1O[C@H](CO)[C@@H](O)[C@H]1O [ADENOSINE] | 0 | No-Dili-Concern |
| CC(=O)Oc1ccc(C(=C2CCCCC2)c2ccc(OC(C)=O)cc2)cc1 [CYCLOFENIL] | 8 | Most-Dili-Concern |
| O=C1O[C@H]([C@@H](O)CO)C(O)=C1O [ASCORBIC ACID] | 0 | No-Dili-Concern |
| Cn1cnc([N+](=O)[O-])c1Sc1ncnc2nc[nH]c12 [AZATHIOPRINE] | 5 | Most-Dili-Concern |
| CC(NN)c1ccccc1 (configuration not stated) [MEBANAZINE] | 8 | Most-Dili-Concern |
| COc1ccccc1Oc1c(NS(=O)(=O)c2ccc(C(C)(C)C)cc2)nc(-c2ncccn2)nc1OCCO [BOSENTAN] | 7 | Most-Dili-Concern |
